Measurements as given in publication PMC4569415, “Pro-Oxidant Activity of Amine-Pyridine-Based Iron Complexes Efficiently Kills Cancer and Cancer Stem-Like Cells” (PLoS ONE, 2015).
Where “and” joins values, the source holds several entries; their conditions need not be identical. Equal values may be shown once.

Assays:
[1] = tested on: supercoiled pUC18 plasmid DNA; assay: DNA cleavage by agarose gel electrophoresis; type: biochemical; settings: 25 μM, 1 h, 37°C
Method: DNA cleavage was monitored by agarose gel electrophoresis. A stock solution of pUC18 DNA was freshly prepared in Milli-Q water at a concentration of […] (1512 μmol/L nucleotides; 756 μmol/L bp). Reactions were performed by mixing 0.5 μl of pUC18 with appropriate aliquots of the compounds and 1 μL of activating agent solution (35% wt/vol H2O2 in H2O). Cacodylate buffer (0.1 M, pH 6.0) was added to the mixture to give a final volume of 20 μl. The final concentration of pUC18 DNA was 37.8 μmol/L in nucleotides (18.9 μmol/L bp). Samples were incubated for 1 h at 37°C; reactions were quenched by adding 6 μL of a buffer solution consisting of bromophenol blue (0.25%), xylene cyanol (0.25%), and glycerol (30%). Subsequently, the samples were subjected to electrophoresis in 0.8% agarose gels in 0.5×TBE buffer (0.045 mol/L Tris, 0.045 mol/L boric acid, and 1 mmol/L EDTA) at 100 V for 1 h and 40 min. Gels were stained with ethidium bromide (10 mg/mL in TBE) for 15 min and visualized under UV transillumination. DNA bands were captured using the ProgRes CapturePro 2.7 system and the intensity of each band was quantified with the GelQuant version 2.7 software (DNR Bio-Imaging Systems, Jerusalem, Israel) using a correction factor of 1.31 to compensate for the reduced ethidium bromide uptake of supercoiled plasmid pUC18 DNA [47]. The proportion of different forms of plasmid DNA was established for each treatment. To test the involvement of ROS in strand scission and possible complex–DNA interaction sites, various ROS scavengers and groove binders were added to the reaction mixtures. The scavengers used were Tiron (10 mmol/L), sodium azide (0.4 mol/L), and dimethyl sulfoxide (DMSO, 3 μL). The groove binders used were methyl green (20 mmol/L) and Hoechst (40 μmol/L).

[2] = Hemolytic assay; type: cell-based; settings: human, erythrocyte suspension of fresh human blood (5% vol/vol)
Method: The hemolytic activity of the compounds at 100 μmol/L was evaluated by determining hemoglobin release from erythrocyte suspensions of fresh human blood (5% vol/vol) as described.

[3] = tested on: human leukemia, lymphoma and glioma cancer cells; assay: MTT cell viability at 10 μmol/L, cell line panel; type: cell-based; settings: 48 h
Method: (§1) The cytotoxic activity of the compounds was determined by MTT reduction assay as described. Compounds were diluted in Milli-Q water to obtain 1 mmol/L stock solutions. Appropriate aliquots of these solutions were diluted in the corresponding cell culture medium to obtain the final working concentrations. Aliquots of 5000 1BR3G cells, 6000 MCF-7, 6000 PC-3 cells, 10 000 CAPAN-1 cells, 4000 MCF 10A cells, 4000 HMLE cells or 4000 CCD-18Co cells were seeded in 96-well plates, 24 h prior to the treatments. Hematological cell lines were seeded at 400 000 cells/mL. Cells were treated with the corresponding compound at concentrations ranging from 0 to 100 μmol/L for 48 h. Three replicates for each compound were used. The IC50 was established for each compound by standard non-linear regression and curve fitting using GraphPad Prism (Graph Pad software Inc., La Jolla, CA, USA).
(§2) Fig 2 Cell viability assay. (A) Cytotoxic activity of compounds 1, 2, and 5 against cancer cells. The indicated cell lines were treated for 48 h with ligands (10 μmol/L) and cell viability was measured with the MTT assay. Data represents the percentage of viable cells relative to untreated cells (control). (B) Cytotoxicity of doxorubicin and compounds 1, 2 and 5 against CS-like cells. CS-like HMLER-shEcad cells and non-CS-like HMLER isogenic parental cells were treated for 48 h with graded concentrations of doxorubicin, 1, 2 and 5. Cell viability was measured with the MTT assay. For each treatment, the percentage of viable cells relative to untreated cells is indicated. Data represents the mean±SD of 3 independent experiments performed in triplicate.

[4] = tested on: HMLE; assay: MTT cytotoxicity assay; type: cell-based; settings: Homo sapiens, 48 h of treatment, non malignant cells
Method: as §1

[5] = tested on: Z-138; assay: MTT cytotoxicity assay; type: cell-based; settings: Homo sapiens, 48 h of treatment
Method: as §1

[6] = tested on: MCF-10A; assay: MTT cytotoxicity assay; type: cell-based; settings: Homo sapiens, 48 h of treatment, non malignant cells
Method: as §1

[7] = tested on: PC-3; assay: MTT cytotoxicity assay; type: cell-based; settings: Homo sapiens, 48 h of treatment
Method: as §1

[8] = tested on: 1BR3G; assay: MTT cytotoxicity assay; type: cell-based; settings: Homo sapiens, 48 h of treatment, non malignant cells
Method: as §1

[9] = tested on: CCD-18Co; assay: MTT cytotoxicity assay; type: cell-based; settings: Homo sapiens, 48 h of treatment, non malignant cells
Method: as §1

[10] = tested on: JURKAT; assay: MTT cytotoxicity assay; type: cell-based; settings: Homo sapiens, 48 h of treatment
Method: as §1

[11] = tested on: caspase 3/7; assay: Caspase-Glo 3/7 luminometric assay; type: cell-based; settings: 10 μmol/L, 48 h, panel of human cancer cell lines
Method: Enzymatic caspase activity was determined after exposing the cells to compound 1, 2 and 5 at 10 μmol/L for 48 h. Caspase 3/7 activity was measured with the luminometric Caspase-Glo 3/7assay (Promega, Madison, WI, USA) using a Synergy HT multi-detection microplate reader (Bio-Tek).

[12] = tested on: MCF-7 cells; assay: Colony formation (clonogenic) assay; type: cell-based, human; settings: 10 μmol/L
Method: MCF-7 cells were seeded in 12-well plates. […] Subsequently, cells were washed with PBS, collected with trypsin and plated at low density (3000 cells in a […]). Cells were allowed to divide and form colonies for 7–10 days; after which, colonies were fixed and stained with 2% methylene blue in 50% ethanol. The number of colonies in each plate was determined using the Alpha Innotech Imaging system (Alpha Innotech, San Leandro, CA).

[13] = tested on: CS-like HMLER-shEcad cells; assay: MTT cytotoxicity assay in cancer stem-like cells; type: cell-based, human; settings: Homo sapiens, 48 h
Method: as §1, §2

[14] = tested on: CAPAN-1 cells; assay: Cellular labile iron pool with calcein-AM; type: cell-based, human; settings: CAPAN-1, 10 μmol/L, 24 h
Method: The cellular labile iron pool was determined with calcein-AM. CAPAN-1 cells (125 000 cells/ well) were seeded in 24-well plates and incubated for 24 h. Then, cells were treated for 24 h with 10 μmol/L of compound 1, 2 or 5 at 37°C. In some experiments, cells were incubated for 2 h with 100 μmol/L of DFO or 100 μmol/L FeCl2. Cells exposed to the vehicle alone were used as a control. After treatments, cells were washed with PBS and incubated with calcein-AM (0.25 μmol/L) for 30 min at 37°C in the dark. Subsequently, cells were washed and collected with trypsin and the geometric mean fluorescence intensity of 10 000 cells was determined by flow cytometry as described.

With `c1ccc(CN2CCC[C@H]2[C@@H]2CCCN2Cc2ccccn2)nc1` [Compound 1] the “Proportion of plasmid DNA Form I (supercoiled)” value (from here on “Proportion … (supercoiled)”) ([1]; + H2O2) was 52.8%, the “Proportion of plasmid DNA Form II (open)” value ([1]; + H2O2) was 47.2% and the “Proportion … (supercoiled)” value ([1]; absence of H2O2) was 84.3%. For the same molecule, the “Proportion of plasmid DNA Form II (open)” value ([1]; absence of H2O2) was 15.7%, the hemolysis at 100 µM [2] was 0% and the “antiproliferative activity at 10 μmol/L” value [3] was “high antiproliferative activity”. For the same molecule, the IC50 [4] was 6.4 ± 4 µM, the IC50 [5] was 4.8 ± 1.2 µM and the IC50 [6] was 18.8 ± 2.9 µM. It also gave an IC50 [7] of 8.5 ± 1.4 µM, an IC50 [8] of 12.7 ± 1.6 µM and an IC50 [9] of 27 ± 4.4 µM. For the same molecule, the IC50 [10] was 15.1 ± 3.1 µM, the “caspase 3/7 activation” value [11] was “significant caspase 3/7 activation in lymphoma (Z-138, Jeko-1, Granta and SP-53) but not in leukemia (JURKAT) or glioma (LN229 and U87MG) cell lines” and the “reduction of colony number vs control” value ([12]; 3 h exposure) was 0%. For the same molecule, the “reduction of colony number vs control” value ([12]; 5 h exposure) was 18.7%, the “reduction of colony number vs control” value ([12]; 12 h exposure) was 40.5% and the “reduction of colony number vs control” value ([12]; 24 h exposure) was 57% and 56.6%. For the same molecule, the IC50 [13] was 5.3 ± 0.7 µM and the “calcein fluorescence intensity, % of untreated cells” value (“calcein fluorescence intensity, %” below) [14] was 141.4±19.5%.

In the case of `CN(C)c1ccnc(CN2CCC[C@H]2[C@@H]2CCCN2Cc2cc(N(C)C)ccn2)c1` [Compound 2], the “Proportion … (supercoiled)” value ([1]; + H2O2) is reported as 56.8%, the “Proportion of plasmid DNA Form II (open)” value ([1]; + H2O2) is reported as 43.2% and the “Proportion … (supercoiled)” value ([1]; absence of H2O2) is reported as 91.3%. For the same molecule, the “Proportion of plasmid DNA Form II (open)” value ([1]; absence of H2O2) was 8.7%, the hemolysis at 100 µM [2] was 0% and the “antiproliferative activity at 10 μmol/L” value [3] was “high antiproliferative activity”. It also gave an IC50 [4] of 7 ± 0.3 µM, an IC50 [5] of 4.4 ± 0.3 µM and an IC50 [6] of 6.5 ± 1.3 µM. It also gave an IC50 [7] of 3.8 ± 0.2 µM, an IC50 [8] of 7.5 ± 0.5 µM and an IC50 [9] of 20.7 ± 0.3 µM. For the same molecule, the IC50 [10] was 7.2 ± 1.9 µM, the “caspase 3/7 activation” value [11] was “clearly increased caspase 3/7 activity in all cell lines” and the “reduction of colony number vs control” value ([12]; 3 h exposure) was 39%. The “reduction of colony number vs control” value ([12]; 24 h exposure) was “almost abolished”, the IC50 [13] was 6.8 ± 0.1 µM and the “calcein fluorescence intensity, %” value [14] was 136.8±11.7%.

For `CN1CCN(Cc2ccccn2)CCN(Cc2ccccn2)CC1` [Compound 5], the “Proportion … (supercoiled)” value ([1]; + H2O2) was 53.3%, the “Proportion of plasmid DNA Form II (open)” value ([1]; + H2O2) was 46.7% and the “Proportion … (supercoiled)” value ([1]; absence of H2O2) was 92.3%. For the same molecule, the “Proportion of plasmid DNA Form II (open)” value ([1]; absence of H2O2) was 7.7%, the hemolysis at 100 µM [2] was 0% and the “antiproliferative activity at 10 μmol/L” value [3] was “high antiproliferative activity”. For the same molecule, the IC50 [4] was 6.1 ± 0.1 µM, the IC50 [5] was 2.9 ± 0.4 µM and the IC50 [6] was 23.8 ± 1.3 µM. The IC50 [7] was 7.7 ± 0.3 µM, the IC50 [8] was 18 ± 4.2 µM and the IC50 [9] was 53.5 ± 3.5 µM. For the same molecule, the IC50 [10] was 5.4 ± 1.3 µM, the “caspase 3/7 activation” value [11] was “activating caspase 3/7 in most cell lines except PC-3 cells” and the “reduction of colony number vs control” value ([12]; 24 h exposure) was 53%. The IC50 [13] was 8.6 ± 0.5 µM and the “calcein fluorescence intensity, %” value [14] was 144.6±13.8%.
